Experimental data taken from the NIST ThermoML archive (doi:10.1016/j.tca.2019.02.007).
± gives the expanded uncertainty stated by the source.

How the values were obtained:
[1] = for Normal melting temperature: DTA
[2] = Molar enthalpy of transition or fusion; settings: DSC

Normal melting temperature ([1]; Crystal 1) | Triple point temperature ([1]; Crystal 2, DSC) | Molar enthalpy of transition or fusion ([2]; Crystal 1) | Molar enthalpy of transition or fusion ([2]; Crystal 2) | Structure (SMILES) | Normal melting temperature ([1]; Crystal) | Molar enthalpy of transition or fusion ([2]; Crystal)
– | – | – | – | CC(=O)Oc1ccccc1C(=O)O [2-acetoxybenzoic acid] | 139.2 ± 1.5 °C | 8.08 ± 0.574 kcal/mol
– | – | – | – | O=C(O)c1ccccc1 [benzoic acid] | 122.5 ± 0.5 °C | 4.33 ± 0.131 kcal/mol
235.2 ± 1.3 °C | 420.3 ± 1.1 K | 5 ± 0.526 kcal/mol | 0.954 ± 0.0741 kcal/mol | Cn1c(=O)c2c(ncn2C)n(C)c1=O [caffeine] | – | –
